This note sets out measurements from patent US20250002487A1, “HETEROCYCLIC COMPOUNDS AND USES THEREOF” (Ventus Therapeutics U.S., Inc., priority 2021, published 2025).

In general, IC50 refers to the concentration that gives 50% inhibition.

Structures are written as SMILES. A value given as a limit tells only on which side of the number the result lay.

The target of the assay is human-cGAS (h-cGAS) (Homo sapiens, UniProt Q8N884). Kind of assay: hcGAS Kinase-Glo Assay. Format: biochemical. The note with it: 40 nM h-cGAS, 100 μM ATP, 100 μM GTP, 25 nM dsDNA, 3 h incubation, read-out: hcGAS potency IC50. The protocol: In some embodiments, the compounds of the instant disclosure may be tested for their human-cGAS (h-cGAS) inhibition activity using the methodology reported in Lama et al., “Development of human cGAS-specific small molecule inhibitors for repression of double stranded DNA (dsDNA)-triggered interferon expression”, Nature Communications 10, Article number: 2261 (2019), incorporated herein by reference. hcGAS Kinase-Glo Assay Compounds were tested for their human-cGAS (h-cGAS) inhibition activity using the methodology reported in Lama et al., “Development of human cGAS-specific small molecule inhibitors for repression of double stranded DNA (dsDNA)-triggered interferon expression”, Nature Communications 10. Article number: 2261 (2019), which is herein incorporated by reference in its entirety, with slight changes to some conditions as shown in Table B. The results of the assays, expressed in IC50 ranges are reported in Table C with the following designations: A represents an IC50 value <0.1 μM; B represents an IC50 value ≥0.1 μM and <0.5 μM; C represents an IC50 value ≥0.5 μM and <1.0 μM; D represents an IC50 value ≥1.0 μM. [table]
human-cGAS (h-cGAS), sequence (Q8N884 whole entry): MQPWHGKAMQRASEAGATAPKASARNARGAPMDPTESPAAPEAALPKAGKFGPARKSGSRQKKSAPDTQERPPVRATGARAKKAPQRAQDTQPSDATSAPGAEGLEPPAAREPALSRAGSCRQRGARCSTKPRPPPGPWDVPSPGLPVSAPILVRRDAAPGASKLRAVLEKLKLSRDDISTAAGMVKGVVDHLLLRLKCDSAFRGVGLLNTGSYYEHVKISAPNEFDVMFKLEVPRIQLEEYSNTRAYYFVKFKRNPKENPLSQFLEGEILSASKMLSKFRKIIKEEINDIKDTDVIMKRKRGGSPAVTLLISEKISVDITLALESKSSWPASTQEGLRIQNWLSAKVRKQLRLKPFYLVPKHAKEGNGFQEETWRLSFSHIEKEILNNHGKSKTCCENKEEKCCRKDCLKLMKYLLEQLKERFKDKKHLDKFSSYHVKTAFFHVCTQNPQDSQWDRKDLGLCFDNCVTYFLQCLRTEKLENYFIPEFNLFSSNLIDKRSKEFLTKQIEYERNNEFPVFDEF
For orientation: Kinase-Glo measures the ATP left after a reaction by luminescence.
For `CSc1nnc(NC(=O)c2nnc(N3CCC(C(=O)O)C3)o2)s1` (centres unmarked) [Compound 112, 1-(5-{[5-(methylsulfanyl)-1,3,4-thiadiazol-2-yl]carbamoyl}-1,3,4-oxadiazol-2-yl)pyrrolidine-3-carboxylic acid], the IC50 fell in the range of 100 to 500 nM.

For `Cc1cnc(-c2cc(C(=O)Nc3nnc(-c4ccccc4Cl)s3)on2)nc1` [Compound 158, N-(5-(2-Chlorophenyl)-1,3,4-thiadiazol-2-yl)-3-(5-methylpyrimidin-2-yl)isoxazole-5-carboxamide], the IC50 fell in the range of 100 to 500 nM.

Take `CSc1nnc(NC(=O)c2nnc(N3CCC[C@@H]3c3ccccc3)o2)s1` [Compound 125, (R)-N-(5-(methylthio)-1,3,4-thiadiazol-2-yl)-5-(2-phenylpyrrolidin-1-yl)-1,3,4-oxadiazole-2-carboxamide]: the IC50 lay within 100 to 500 nM.

`CSc1nnc(NC(=O)c2noc(-c3ccccc3)n2)s1` [Compound 236, N-(5-methylsulfanyl-1,3,4-thiadiazol-2-yl)-5-phenyl-1,2,4-oxadiazole-3-carboxamide]: the IC50 fell in the range of 500 to 1000 nM.

Consider `CSc1nnc(NC(=O)c2onc3c2CCCC3)s1` [Compound 67, N-(5-(methylthio)-1,3,4-thiadiazol-2-yl)-4,5,6,7-tetrahydrobenzo[c]isoxazole-3-carboxamide], for which the IC50 was in the range of 500 to 1000 nM.

As to `CSc1nnc(NC(=O)c2cc(-c3cnc4ccccc4c3)cc(=O)o2)s1` [Compound 255, N-(5-methylsulfanyl-1,3,4-thiadiazol-2-yl)-6-oxo-4-(3-quinolyl)pyran-2-carboxamide], the IC50 lay in the range of 500 to 1000 nM.

For the compound `CSc1nnc(NC(=O)c2nnc(N3CCC(O)C3)o2)s1` (centres unmarked) [Compound 116, 5-(3-hydroxypyrrolidin-1-yl)-N-[5-(methylsulfanyl)-1,3,4-thiadiazol-2-yl]-1,3,4-oxadiazole-2-carboxamide], the half-inhibitory concentration (IC50) lay within 500 to 1000 nM.

`CSc1nnc(NC(=O)c2nnc(Nc3ccccc3)o2)s1` [Compound 257, 5-anilino-N-(5-methylsulfanyl-1,3,4-thiadiazol-2-yl)-1,3,4-oxadiazole-2-carboxamide]: the IC50 lay in the range of 500 to 1000 nM.

Regarding `O=C(Nc1nnc(-c2ccccn2)s1)c1onc2ccccc12` [Compound 21, N-(5-(pyridin-2-yl)-1,3,4-thiadiazol-2-yl)benzo[c]isoxazole-3-carboxamide], the IC50 was in the range of 500 to 1000 nM.

With `COc1cccc2c1CCc1c-2noc1C(=O)Nc1nnc(SC)s1` [Compound 172, 6-Methoxy-N-(5-(methylthio)-1,3,4-thiadiazol-2-yl)-4,5-dihydronaphtho[1,2-c]isoxazole-3-carboxamide], the IC50 is at least 1000 nM.

As for `O=C(Nc1nnc(-c2ccccc2Cl)s1)c1nnn[nH]1` [Compound 60, N-(5-(2-chlorophenyl)-1,3,4-thiadiazol-2-yl)-1H-tetrazole-5-carboxamide], the IC50 was at least 1000 nM.

With `O=C(Nc1nnc(-c2ccccc2Cl)s1)c1n[nH]c(=O)[nH]1` [Compound 63, N-(5-(2-chlorophenyl)-1,3,4-thiadiazol-2-yl)-5-oxo-4,5-dihydro-1H-1,2,4-triazole-3-carboxamide], the half-maximal inhibitory concentration (IC50) is 500 to 1000 nM.

As for `O=C(Nc1nnc(-c2ccccc2Cl)s1)c1cc(C(F)(F)F)no1` [Compound 34, N-(5-(2-chlorophenyl)-1,3,4-thiadiazol-2-yl)-3-(trifluoromethyl)isoxazole-5-carboxamide], the IC50 is 500 to 1000 nM.

As for `CSc1nnc(NC(=O)c2cc(-c3cccc(=O)[nH]3)cc(=O)o2)s1` [Compound 276, N-(5-(methylthio)-1,3,4-thiadiazol-2-yl)-2-oxo-4-(6-oxo-1,6-dihydropyridin-2-yl)-2H-pyran-6-carboxamide], the IC50 lay in the range of 100 to 500 nM.

On to `O=C(Nc1nnc(-c2ccccc2F)s1)c1onc2ccccc12` [Compound 26, N-(5-(2-fluorophenyl)-1,3,4-thiadiazol-2-yl)benzo[c]isoxazole-3-carboxamide], for which the IC50 was 100 to 500 nM.

In the case of `CSc1nnc(NC(=O)c2ccc(-c3ccccc3)c(=O)o2)s1` [Compound 225, N-[5-(methylsulfanyl)-1,3,4-thiadiazol-2-yl]-6-oxo-5-phenylpyran-2-carboxamide], the IC50 was at least 1000 nM.

With `CSc1nnc(NC(=O)c2cc(-c3cc(F)ccc3F)no2)s1` [Compound 47, 3-(2,5-difluorophenyl)-N-(5-(methylthio)-1,3,4-thiadiazol-2-yl)isoxazole-5-carboxamide], the IC50 is 500 to 1000 nM.

For the compound `O=C(Nc1nnc(-c2cnccn2)s1)c1onc2ccccc12` [Compound 130, N-[5(pyrazin-2-yl)-1,3,4-thiadiazol-2-yl]-2,1-benzoxazole-3-carboxamide], the IC50 was 500 to 1000 nM.

Regarding `CSc1nnc(NC(=O)c2onc3cc(F)ccc23)s1` [Compound 222, 6-fluoro-N-[5-(methylsulfanyl)-1,3,4-thiadiazol-2-yl]-2,1-benzoxazole-3-carboxamide], the IC50 was in the range of 500 to 1000 nM.

Regarding `CSc1nnc(NC(=O)c2cc(-c3cccc(C)c3)no2)s1` [Compound 219, 3-(3-methylphenyl)-N-[5-(methylsulfanyl)-1,3,4-thiadiazol-2-yl]-1,2-oxazole-5-carboxamide], the IC50 lay in the range of 500 to 1000 nM.

Regarding `Cc1cc(C(=O)Nc2nnc(-c3ccccc3Cl)s2)on1` [Compound 36, N-(5-(2-chlorophenyl)-1,3,4-thiadiazol-2-yl)-3-methylisoxazole-5-carboxamide], the IC50 fell in the range of 100 to 500 nM.

In the case of `CSc1nnc(NC(=O)c2nnn(Cc3cccnc3)n2)s1` [Compound 135, N-(5-(methylthio)-1,3,4-thiadiazol-2-yl)-2-(pyridin-3-ylmethyl)-2H-tetrazole-5-carboxamide], the IC50 was at least 1000 nM.

For `CSc1nnc(NC(=O)c2onc3c2CCCC3O)s1` (centres unmarked) [Compound 196, 7-Hydroxy-N-(5-(methylthio)-1,3,4-thiadiazol-2-yl)-4,5,6,7-tetrahydrobenzo[c]isoxazole-3-carboxamide], the IC50 was at least 1000 nM.

`CSc1nnc(NC(=O)c2onc(C)c2C)s1` [Compound 242, 3,4-dimethyl-N-(5-methylsulfanyl-1,3,4-thiadiazol-2-yl)isoxazole-5-carboxamide]: the IC50 was 500 to 1000 nM.

On to `CSc1nnc(NC(=O)c2onc3c2CCc2sc(C)nc2-3)s1` [Compound 181, 7-methyl-N-(5-(methylthio)-1,3,4-thiadiazol-2-yl)-4,5-dihydrothiazolo[5′,4′:5,6]benzo[1,2-c]isoxazole-3-carboxamide], for which the IC50 lay in the range of 500 to 1000 nM.

Take `COc1ccccc1-c1nnc(NC(=O)c2onc3ccccc23)s1` [Compound 24, N-(5-(2-methoxyphenyl)-1,3,4-thiadiazol-2-yl)benzo[c]isoxazole-3-carboxamide]: the IC50 was in the range of 500 to 1000 nM.

Consider `CSc1nnc(NC(=O)c2oncc2-c2ccccc2)s1` [Compound 232, N-[5-(methylsulfanyl)-1,3,4-thiadiazol-2-yl]-4-phenyl-1,2-oxazole-5-carboxamide], for which the IC50 fell in the range of 500 to 1000 nM.

In the case of `Cc1cccc(-c2nnc(NC(=O)c3onc4ccccc34)s2)c1` [Compound 28, N-(5-(m-tolyl)-1,3,4-thiadiazol-2-yl)benzo[c]isoxazole-3-carboxamide], the IC50 was at least 1000 nM.

With `O=C(Nc1nnc(-c2ccccn2)s1)c1onc2c1ccc1cccnc12` [Compound 10, N-(5-(pyridin-2-yl)-1,3,4-thiadiazol-2-yl)isoxazolo[4,3-h]quinoline-3-carboxamide], the IC50 fell in the range of 100 to 500 nM.

Turning to `CSc1nnc(NC(=O)c2nnc3ccccn23)s1` [Compound 260], the IC50 was at least 1000 nM.

In the case of `COc1ccccc1-c1cc(C(=O)Nc2nnc(SC)s2)oc(=O)c1` [Compound 244, 4-(2-methoxyphenyl)-N-(5-methylsulfanyl-1,3,4-thiadiazol-2-yl)-6-oxo-pyran-2-carboxamide], the IC50 was 100 to 500 nM.

In the case of `COc1ccc(Cc2ccc3noc(C(=O)Nc4nnc(SC)s4)c3c2)cc1` [Compound 160, 5-(4-Methoxybenzyl)-N-(5-(methylthio)-1,3,4-thiadiazol-2-yl)benzo[c]isoxazole-3-carboxamide], the IC50 is 500 to 1000 nM.

For the compound `CSc1nnc(NC(=O)c2nc(-c3ccccc3)cs2)s1` [Compound 65, N-(5-(methylthio)-1,3,4-thiadiazol-2-yl)-4-phenylthiazole-2-carboxamide], the concentration for half-maximal inhibition (IC50) is at least 1000 nM.

In the case of `COc1cccc2c(C(=O)Nc3nnc(SC)s3)onc12` [Compound 230, 7-methoxy-N-[5-(methylsulfanyl)-1,3,4-thiadiazol-2-yl]-2,1-benzoxazole-3-carboxamide], the IC50 lay within 100 to 500 nM.

`CSc1nnc(NC(=O)c2nnc(-c3ccccn3)o2)s1` [Compound 106, N-(5-(methylthio)-1,3,4-thiadiazol-2-yl)-5-(pyridin-2-yl)-1,3,4-oxadiazole-2-carboxamide]: the IC50 was 500 to 1000 nM.

For the compound `COCCc1cc(C(=O)Nc2nnc(-c3ccccc3Cl)s2)on1` [Compound 169, N-(5-(2-chlorophenyl)-1,3,4-thiadiazol-2-yl)-3-(2-methoxyethyl)isoxazole-5-carboxamide], the IC50 is under 100 nM.

For `CSc1nnc(NC(=O)c2onc3c2ccc2ccccc23)s1` [Compound 220, N-[5-(methylsulfanyl)-1,3,4-thiadiazol-2-yl]naphtho[1,2-c][1,2]oxazole-3-carboxamide], the IC50 lay within 100 to 500 nM.

As to `CSc1nnc(NC(=O)c2nnc(N3CCCC3C(=O)O)o2)s1` (centres unmarked) [Compound 111, 1-(5-{[5-(methylsulfanyl)-1,3,4-thiadiazol-2-yl]carbamoyl}-1,3,4-oxadiazol-2-yl)pyrrolidine-2-carboxylic acid], the IC50 was in the range of 100 to 500 nM.
